Test results taken from patent US20260224674A1, “COMPOSITIONS COMPRISING PEDF-DERIVED SHORT PEPTIDES AND MESENCHYMAL STEM CELLS FOR BONE/CARTILAGE REGENERATION” (BRIM Biotechnology, Inc., priority 2022, published 2026).

How the values were obtained:
[1] = tested on: ACLT surgery induced osteoarthritis mouse model; assay: OARSI histologic scoring of cartilage degradation in ACLT surgery induced OA murine model; format: in vivo
Protocol: (§1) The OA murine model is induced by anterior cruciate ligament (ACLT) surgery. In brief, a medial arthrotomy was performed. With the knee in full flexion, the patella was dislocated laterally, the anterior cruciate ligament (ACLT) was transected, and then the wounds were closed.
(§2) The ACLT surgery was performed on the unilateral knees of each mouse for 2 months prior to the treatments. Twenty mice were randomly divided into 5 groups: (i) non-treated group [n=3]; (ii) vehicle-treated group [n=4]; (iii) PDSP-treated group [n=5], (iv) vehicle combined with IPFP-MSC-treated group [n=3]; (v) PDSP combined with IPFP-MSC-treated group [n=5] in ACLT surgery induced OA groups, while the knees without surgery serve as sham-operated group [n=4]. At eight weeks after ACLT surgery (first injection), the knee joints of the non-treated, vehicle-treated, or PDSP-treated groups were intra-articular injected, respectively, with 0.01 mL PBS, vehicle, or PDSP, while those of the vehicle or PDSP combined with IPFP-MSC groups were injected with hMSCs in 0.01 mL. MSCs were intra-articular injected at the first treatment only (i.e., at 8 weeks). For the second treatments (two weeks after MSC injections or 10 weeks after ACLT surgery), those of the vehicle or PDSP combined with IPFP-MSC injection groups were injected with 0.01 mL vehicle or PDSP. […]

[2] = tested on: ACLT surgery induced osteoarthritis mouse model; assay: Safranin O and H&E histological staining of the murine knee joints; format: in vivo; settings: ACLT surgery induced OA mice; compared with non-treated OA groups
Protocol: as §1, §2

type II collagen = assay: Type II collagen immunohistochemistry (IHC) staining of the murine knee joint; format: in vivo, mouse; settings: ACLT surgery induced OA mice; compared with non-treated and vehicle-treated OA groups
Protocol: as §1, §2

type X collagen = assay: Type X collagen immunohistochemistry (IHC) staining of the murine knee joint; format: in vivo, mouse; settings: ACLT surgery induced OA mice
Protocol: as §1, §2

[3] = tested on: human bone marrow-derived mesenchymal stem cells (hBM-MSC); assay: hBM-MSC spheroid chondrogenesis, Alcian Blue staining at day 14; format: cell-based; settings: PDSP 10 μM, chondrogenic differentiation medium with TGFβ1 10 ng/ml
Protocol: To shed light on possible mechanisms for the effects of PDSP chondrogenesis, further experiments were conducted to assess the effects of PDSP on MSC. The MSC used in this study are human bone marrow-derived mesenchymal stem cells (hBM-MSC) from Gibco (StemPro™ BM Mesenchymal Stem Cells). […] Human bone marrow MSC spheroids were cultured with chondrogenic differentiation medium, with or without TGFβ1 and with or without PDSP. The media were changed every 3 days. On day 14, the cartilage spheroids were collected for evaluation. The various media compositions are as follows (the base medium is a high-glucose DMEM supplemented with 1×10^−7M dexamethasone, 1×10^−3M sodium pyruvate, 1.7×10^−4M L-ascorbic acid-2-phosphate, 3.5×10^−4M proline, 5 mL ITS+Premix in 500 mL medium, and 1% antibiotic): […]

## SLGAEQRTESIIHRALYYDLISSPDIHGT (listed as Homo sapiens) [PDSP, PEDF-derived short peptide]
[1]; ACLT surgery induced OA groups, text values with their spread (SEM per Table 2)
  OARSI scores: 3.47±0.19
[1]; ACLT surgery induced osteoarthritis mice, intra-articular injection at 8 and 10 weeks after surgery, average over animals
  The histologic scoring of murine OA (OARSI score), Average: 3.47
[2]
  Cartilage loss and surface irregularity in the medial and lateral compartments (safranin O and H&E staining): less cartilage loss and surface irregularity
Type II collagen
  Expression of type II collagen (IHC): increased
Type X collagen
  Type X collagen signals (IHC): decreased
[3]
  Cartilage spheroids size (total area): increase the cartilage spheroids size
  Chondrogenesis (Alcian blue positive area; differentiation of hBM-MSC into chondrocytes): promote chondrogenesis
